“Also recorded” adds a separate entry of the source.
Columns and labels:
[1] = system: cleaved caspase 3 and PARP; assay: Western blot of apoptotic molecules; type: cell-based, mouse; details: B16 melanoma cells
[2] = system: B16 melanoma cells; assay: MTT cell viability assay; type: cell-based, mouse; details: 24 hrs of treatment; for B16 melanoma cell viability / proliferation rate: increasing dosages
Description: B16 mouse melanoma cells were purchased from (ATCC, Manassas, Va., USA).
The base medium for the cell line was Dulbecco's modified Eagle's medium (DMEM). To make the complete growth medium, fetal bovine serum (final concentration, 10%) was added to the base medium. Tocotrienol (T3) and tocopherol (TP) isomers and the palm tocotrienol-rich fraction (TRF) were purified from a palm fatty acid distillate (PFAD) using molecular distillation and Novasep® equipment (Novasep, Pompey, France). The extraction facility is located in Tuas, Singapore. The PFAD feed was purchased from Kuala Lumpur Kepong Berhad (Kuala Lumpur, Malaysia). The purity of the vitamin E isomers was verified by HPLC and gas chromatography (GC) percentage peak area.
For the cell viability study, 5×10^3 cells re-suspended in 100 μl of medium were plated into each well of a 96-well plate. The cells were then treated with different concentrations of the vitamin-E isomers for 24 hrs. After the treatment, 20 μl of MTT solution (1 mg/ml in PBS; Sigma-Aldrich, St. Louis, Mo., USA) was added to each well and the cells were incubated at 37° C. for 2 hrs. The formazan crystals were then re-suspended in 200 μl of DMSO and the intensity at 595 nm was measured.

[3] = system: B16 melanoma cells; assay: Anti-pigmentation effect, photographs of cell pellets; type: cell-based, mouse
Description: (§1) At different time points, cells were harvested using trysin-EDTA and the cell pellets were washed once with phosphate-buffered saline (PBS). A sample amount from each compound treatment group was divided into two equal parts. These cell pellets were then stored at −80° C. prior to the measurement of the tyrosinase activity and melanin content.

[4] = system: tyrosinase; assay: Western blot of tyrosinase protein expression in B16 melanoma cells; type: cell-based, mouse; details: for tyrosinase protein suppression, dose response and relative potency: increasing dosage; for time response of tyrosinase suppression: single dose, 24 hrs versus 48 hrs
Description: Carcinogenesis, 2006, 27, 2180-9. Briefly, cell lysates were prepared by suspending cell pellets in lysis buffer (50 mmol/l Tris-HCl [pH 8.0], 150 mmol/l NaCl, 1% NP40, 0.5% deoxycholate, 0.1% SDS, […], 1 μg/ml leupeptin, and 1 mmol/l phenylmethylsulfonyl fluoride). The protein concentration was measured using the DC Protein Assay kit (Bio-Rad, Hercules, Calif., USA). An equal amount of protein (30 μg) was loaded onto a 10% SDS polyacrylamide gel for electrophoresis, then transferred onto a polyvinylidene difluoride membrane (Amersham, Piscataway, N.J., USA). The membrane was then incubated with primary antibodies for 1 hr at room temperature against tyrosinase, Id1, and beta-actin (Santa Cruz Biotechnology, Inc., Santa Cruz, Calif., USA). After incubation with appropriate secondary antibodies, signals were visualized by an ECL Western blotting system (Amersham). The expression of β-actin was assessed as an internal loading control for total cell lysate.

[5] = system: tyrosinase mRNA; assay: Reverse transcriptase PCR of tyrosinase mRNA; type: cell-based, mouse; details: B16 melanoma cells
Excerpt: Total RNA was isolated using Trizol reagent according to the manufacturer's protocol (Invitrogen, Carlsbad, Calif., USA). cDNA was synthesized using the SuperScript First Strand Synthesis System (Invitrogen, Carlsbad, Calif., USA) and was then amplified by PCR with tyrosinase-specific primers (forward primer, tyrosinase-S,5′-[…]-3′ [−2236/−2217] (SEQ ID NO: 1) and reverse primer, tyrosinase-AS,5′-[…]-3′ [+63/+42]) (SEQ ID NO: 2) and GAPDH specific primers: 5′ to 3′F […] (SEQ ID NO: 3); 5′ to 3′R […] (SEQ ID NO: 4). The PCR cycling protocol was as follows: 30 cycles for 10 min at 95° C., 30 sec at 95° C., 30 sec at 55° C., 1 min at 72° C., and 10 min at 72° C. Glyceraldehyde 3-phosphate dehydrogenase (GAPDH) was amplified as an internal control. The PCR products were electrophoresed on a 2% agarose gel and analyzed using a gel documentation system.

[6] = system: B16 cells xenografted on the flank of nude mice; assay: B16 xenograft model in nude mice; type: in vivo; details: cells pre-treated with 20 μM for 1 week, 14 days oral supplementation
Description: The experimental protocol was approved by the IACUC Committee of the A-STAR Biological Resource Centre (BRC) at Biopolis (IACUC no. 080302). Male BALB/c athymic nude mice (4-5 weeks old, 18-22 g) were purchased from The Jackson Laboratory (Bar Harbor, Me., USA). Mice were housed in Department 1 of the Biological Resource Centre (Biopolis, Singapore) under the standard condition (20.8±2° C., 55±1% relative humidity, 12 hrs light/dark cycle) with rodent diet (Harlan Laboratories, Inc., Indianapolis, Ind., USA) and chlorinated reverse osmosis water supplied in a pathogen-free environment. Briefly, B16 cells were pre-treated with 20 μM of γ- and δ-T3, or palm TRF for 1 week. Then, 5×10^5 pre-treated B16 cells in 100 μl serum-free DMEM were injected subcutaneously into the flank of nude mice using a 1-ml syringe with a 26-gauge needle (Becton Dickinson, Franklin Lakes, N.J., USA). This was followed by a 2-week oral supplementation of γ- and δ-T3, or palm TRF at the dose of 100 mg/kg/day. Altogether, there are four experimental groups: G1, vehicle control; G2, γT3 (100 mg/kg/d); G3, δT3 (100 mg/kg/d); and G4, full spectrum palm TRF (100 mg/kg/d). The mice were weighed daily and the tumors were measured using a Digital Carbon Fiber Caliper (Fisher Scientific, Pittsburgh, Pa., USA) at the 5th and 14th day after innoculation. After 14 days of treatment, the mice were euthanized by CO2 inhalation. Blood samples were collected through cardiac bleeding using a 26-gauge needle. Blood samples were incubated at room temperature for 30 min, followed by centrifugation at 4400 rpm for 30 min at 4° C. Serum, as the supernatant, was separated from plasma and stored at −80° C. Tumors, liver, kidney, spleen, lung, heart, and skin were harvested.

[7] = system: B16 melanoma cells; assay: Melanin content of treated B16 melanoma cells; type: cell-based, mouse; details: for melanin content lower than controls: 20 μM
Description: as §1
Harvested cell pellets were dissolved in 1 ml of 1N sodium hydroxide before incubation at 80° C. The melanin content was then immediately measured at 420 nm. The absorbance percentage values of the treated groups in comparison to untreated controls were calculated against per μg of the determined total protein content.

[8] = system: tyrosinase; assay: UV-induced tyrosinase protein expression, Western blot; type: cell-based, mouse; details: for tyrosinase protein expression of B16 cells exposed to UV: UV 1, 10, 30 and 60 minutes
Description: (§2) The UVB source for cell irradiation was provided using a UVP UVM-57 handheld UV lamp (UVP Inc, Upland, Calif., USA).
Briefly, cell lysates were prepared by suspending cell pellets in lysis buffer (50 mmol/l Tris-HCl [pH 8.0], 150 mmol/l NaCl, 1% NP40, 0.5% deoxycholate, 0.1% SDS, 1 mg/ml aprotinin, 1 μg/ml leupeptin, and 1 mmol/l phenylmethylsulfonyl fluoride). The protein concentration was measured using the DC Protein Assay kit (Bio-Rad, Hercules, Calif., USA). An equal amount of protein (30 μg) was loaded onto a 10% SDS polyacrylamide gel for electrophoresis, then transferred onto a polyvinylidene difluoride membrane (Amersham, Piscataway, N.J., USA). The membrane was then incubated with primary antibodies for 1 hr at room temperature against tyrosinase, Id1, and beta-actin (Santa Cruz Biotechnology, Inc., Santa Cruz, Calif., USA). After incubation with appropriate secondary antibodies, signals were visualized by an ECL Western blotting system (Amersham). The expression of β-actin was assessed as an internal loading control for total cell lysate.

[9] = system: B16 cells; assay: Melanin content of pre-treated B16 cells after UV exposure; type: cell-based, mouse; details: 10 minutes UV exposure (short and long wave UV)
Description: as §2

[10] = 0.05% (3.5 mM kojic acid, 4.5 mM sodium lactate)

## CC(C)=CCC/C(C)=C/CC/C(C)=C/CC[C@]1(C)CCc2c(C)c(O)cc(C)c2O1 [β-tocotrienol, 5,8-dimethyltocotrienol]
[1]
  induction of apoptotic molecules (cleaved caspase 3 and PARP): induced critical apoptotic molecules in a dose-dependent manner
[1]; listed as β-T3
  induction of apoptotic molecules (cleaved caspase 3 and PARP): induced cellular apoptosis
[2]
  B16 melanoma cell viability / proliferation rate: inhibited the proliferation rate of B16 melanoma cells in a dose-dependent fashion; also recorded: inhibit B16 melanoma cell viability at high concentrations

## CC(O)C(=O)[O-].[Na+] (stereo not shown) [sodium lactate, reference compound]
[3]; 20 μM
  cell pellet pigmentation: comparable pigmentation level to controls
[3]; [10]
  cell pellet pigmentation: Lighter pigmentation
[4]; 20 μM treatment
  tyrosinase protein expression: did not result in observable down-regulation; also recorded: does not suppress tyrosinase protein expression
[4]
  tyrosinase protein suppression, dose response and relative potency: observed only at much higher concentration
  time response of tyrosinase suppression: opposite observation; also recorded: diminished after 48 hrs
[4]; up to 100 μM
  tyrosinase protein expression: does not suppress tyrosinase protein expression
[5]
  tyrosinase mRNA: not affected; also recorded: No change of tyrosinase mRNA

## CC(C)=CCC/C(C)=C/CC/C(C)=C/CC[C@]1(C)CCc2cc(O)cc(C)c2O1 [δ-tocotrienol, 8-methyltocotrienol]
[3]; 20 μM, listed as delta-T3
  cell pellet pigmentation: lighter cell pigmentation
[3]; 20 μM, listed as δT3
  cell pellet pigmentation: lighter cell pigmentation
[6]
  pigmentation of solid tumors: lighter in colour compared to controls
  tumor size: significantly smaller
[7]; day 5
  melanin content lower than controls: 45%
[7]; day 9
  melanin content lower than controls: 30%
[7]; B16 melanoma cells
  constitutive melanin synthesis: suppress constitutive melanin synthesis
[8]; <10 min UVB
  suppression of short-term UVB-induced tyrosinase activation: more potent than γT3
[8]
  tyrosinase protein expression of B16 cells exposed to UV: significantly suppressed the tyrosinase protein expression
[8]; long-term UVB
  long-term inhibitory effect on UVB-induced tyrosinase activation: comparable
[1]
  induction of apoptotic molecules (cleaved caspase 3 and PARP): induced critical apoptotic molecules in a dose-dependent manner
[1]; listed as δ-T3
  induction of apoptotic molecules (cleaved caspase 3 and PARP): induced cellular apoptosis
[2]
  B16 melanoma cell viability / proliferation rate: inhibited the proliferation rate of B16 melanoma cells in a dose-dependent fashion; also recorded: inhibit B16 melanoma cell viability at high concentrations
[4]; 20 μM treatment, listed as δ-T3
  tyrosinase protein expression: remarkable suppression of tyrosinase protein expression
[4]; 20 μM treatment, listed as δT3
  tyrosinase protein expression: suppresses tyrosinase protein expression
[4]; listed as δ-T3
  tyrosinase protein suppression, dose response and relative potency: significant suppression of tyrosinase in a dose-dependent manner
  time response of tyrosinase suppression: enhanced by increasing the treatment period from 24 to 48 hrs
[4]; listed as δT3
  tyrosinase protein suppression, dose response and relative potency: most potent inhibitor of tyrosinase protein
  time response of tyrosinase suppression: enhanced after a 48 hr incubation period
[9]
  melanin content after UV exposure: significantly suppressed the melanin content
[5]
  tyrosinase mRNA: No change of tyrosinase mRNA
[5]; listed as δ-T3
  tyrosinase mRNA: not affected

## CC(=O)Oc1cc2c(c(C)c1C)OC(C)(CC/C=C(\C)CC/C=C(\C)CCC=C(C)C)CC2 (stereo not shown) [γT3 acetate, γ-tocotrienol acetate]
[4]; 20 μM treatment
  tyrosinase protein expression: suppresses tyrosinase protein expression

## CC(=O)Oc1cc(C)c2c(c1)CCC(C)(CCC=C(C)CCC=C(C)CCC=C(C)C)O2 (stereo not shown) [δT3 acetate, δ-tocotrienol acetate]
[4]; 20 μM treatment
  tyrosinase protein expression: suppresses tyrosinase protein expression

## Cc1c(C)c2c(c(C)c1O)CC[C@@](C)(CCC[C@H](C)CCC[C@H](C)CCCC(C)C)O2 [α-tocopherol, 5,7,8-trimethyltocol]
[3]; 20 μM
  cell pellet pigmentation: comparable pigmentation level to controls
[8]
  tyrosinase protein expression of B16 cells exposed to UV: not able to block UVB-induced activation of tyrosinase at all time points tested
[4]
  time response of tyrosinase suppression: no impact on the suppression of tyrosinase
[5]
  tyrosinase mRNA: No change of tyrosinase mRNA
[5]; listed as αTP
  tyrosinase mRNA: not affected

## O=c1cc(CO)occ1O [kojic acid]
[3]; 20 μM
  cell pellet pigmentation: comparable pigmentation level to controls
[3]; [10]
  cell pellet pigmentation: lighter cell pigmentation
[1]
  induction of apoptotic molecules (cleaved caspase 3 and PARP): induced cellular apoptosis; also recorded: induced critical apoptotic molecules in a dose-dependent manner
[2]
  concentration with anti-proliferation effect: ≥ 0.5%
  B16 melanoma cell viability / proliferation rate: inhibit B16 melanoma cell viability at high concentrations
[5]
  tyrosinase mRNA: not affected; also recorded: No change of tyrosinase mRNA

## CC(C)=CCCC(C)=CCCC(C)=CCCC1(C)CCc2cc(OC(=O)CCC(=O)O)c(C)c(C)c2O1 (stereo not shown) [γT3 succinate, γ-tocotrienol succinate]
[4]; up to 60 μM
  tyrosinase protein expression: does not suppress tyrosinase protein expression

## alpha arbutin [reference compound]
[3]; 20 μM
  cell pellet pigmentation: comparable pigmentation level to controls
[3]; 1 mM
  cell pellet pigmentation: lighter cell pigmentation
[1]
  induction of apoptotic molecules (cleaved caspase 3 and PARP): induced critical apoptotic molecules in a dose-dependent manner
[2]
  B16 melanoma cell viability / proliferation rate: inhibit B16 melanoma cell viability at high concentrations
[4]
  concentration at which suppression of tyrosinase is observed: 1 mM
[4]; up to 60 μM
  tyrosinase protein expression: does not suppress tyrosinase protein expression

— US20130317096A1, “SYNERGISTIC INTERACTION OF AT LEAST ONE VITAMIN E COMPONENT AND TYROSINASE INHIBITORS FOR DERMATOLOGICAL APPLICATIONS” (Davos Life Science Pte Ltd, priority 2010, published 2013)
